Assay [1] has as its target Scn. The arrangement: method as in Li et al., 2015. The following applies: ref Li et al., 2015; cited from earlier work.
The target in assay [2] is T1, Scn (Homo sapiens, UniProt P80188).
T1 construct: made in house
Put plainly: Fe-ENT/c-di-GMP competition mixing experiment (ultrafilter retentates). The following applies: Scn premixed with 25-fold molar excess c-di-GMP, then equimolar Fe-ENT, washed in ultrafilter. The class given is binding. From the text:
Li and coworkers reported that c-di-GMP could compete with bacterial ferric siderophores for Scn binding, alleviating Scn blockade of bacterial iron acquisition during infection ([Li et al., 2015]). This conclusion was based on a computational inverse docking screen, isothermal titration calorimetry (ITC) binding assays, and bacterial growth assays. However, c-di-GMP is not particularly complementary in shape to the Scn calyx, and lacks elements crucial for calyx binding, though its net negative charge does complement the overall positive charge of the calyx. Also, the reported micromolar KD by ITC for the Scn/c-di-GMP interaction was orders-of-magnitude weaker than the sub-nanomolar KDs of Scn for ferric complexes of bacterial CAM-type siderophores previously determined by FQ ([Abergel et al., 2006a], [Abergel et al., 2006b], [Goetz et al., 2002], [Hoette et al., 2008], [Miethke and Skerra, 2010]). [We noted that Li and coworkers also reported a discrepant micromolar KD for the Scn/Fe-ENT interaction by ITC.] However, this conundrum was easily resolved by a simple mixing experiment not previously performed (Fig. 7C). Colorless apo-Scn protein was premixed with a 25-fold molar excess of colorless c-di-GMP, at a concentration well above the reported micromolar KD, and allowed to equilibrate. Fe-ENT, which is colored a deep red, was then added at an equimolar ratio to Scn. […]

Molecules are shown by their SMILES.

T1 sequence (P80188 21-198): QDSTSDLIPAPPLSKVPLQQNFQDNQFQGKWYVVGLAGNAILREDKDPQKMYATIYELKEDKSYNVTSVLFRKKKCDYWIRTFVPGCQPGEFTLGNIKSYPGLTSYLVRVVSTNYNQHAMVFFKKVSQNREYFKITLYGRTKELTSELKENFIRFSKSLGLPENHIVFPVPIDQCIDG

For `Nc1nc2c(ncn2[C@@H]2O[C@@H]3COP(=O)(O)O[C@H]4[C@@H](O)[C@H](n5cnc6c(=O)[nH]c(N)nc65)O[C@@H]4COP(=O)(O)O[C@H]3[C@H]2O)c(=O)[nH]1` [c-di-GMP, cyclic diguanylate monophosphate], the “KD by ITC” value at Scn [1] is given as “micromolar”. In addition, the “competition with Fe-ENT for Scn binding” value at Scn [2] is “too weak to impede binding of ferric siderophores”.
